What was measured:
MET(Y1235D) [1] = target: T1, MET(Y1235D) (Homo sapiens, UniProt P08581, Y1235D); assay: biochemical; conditions: read-out: Percent control
RET(M918T) = RET(M918T) (Homo sapiens, UniProt P07949, M918T); assay: biochemical; conditions: read-out: Percent control
EPHB4 = target: T2, EPHB4 (Homo sapiens, UniProt P54760); assay: biochemical; conditions: read-out: Percent control
T2 sequence (P54760 16-987): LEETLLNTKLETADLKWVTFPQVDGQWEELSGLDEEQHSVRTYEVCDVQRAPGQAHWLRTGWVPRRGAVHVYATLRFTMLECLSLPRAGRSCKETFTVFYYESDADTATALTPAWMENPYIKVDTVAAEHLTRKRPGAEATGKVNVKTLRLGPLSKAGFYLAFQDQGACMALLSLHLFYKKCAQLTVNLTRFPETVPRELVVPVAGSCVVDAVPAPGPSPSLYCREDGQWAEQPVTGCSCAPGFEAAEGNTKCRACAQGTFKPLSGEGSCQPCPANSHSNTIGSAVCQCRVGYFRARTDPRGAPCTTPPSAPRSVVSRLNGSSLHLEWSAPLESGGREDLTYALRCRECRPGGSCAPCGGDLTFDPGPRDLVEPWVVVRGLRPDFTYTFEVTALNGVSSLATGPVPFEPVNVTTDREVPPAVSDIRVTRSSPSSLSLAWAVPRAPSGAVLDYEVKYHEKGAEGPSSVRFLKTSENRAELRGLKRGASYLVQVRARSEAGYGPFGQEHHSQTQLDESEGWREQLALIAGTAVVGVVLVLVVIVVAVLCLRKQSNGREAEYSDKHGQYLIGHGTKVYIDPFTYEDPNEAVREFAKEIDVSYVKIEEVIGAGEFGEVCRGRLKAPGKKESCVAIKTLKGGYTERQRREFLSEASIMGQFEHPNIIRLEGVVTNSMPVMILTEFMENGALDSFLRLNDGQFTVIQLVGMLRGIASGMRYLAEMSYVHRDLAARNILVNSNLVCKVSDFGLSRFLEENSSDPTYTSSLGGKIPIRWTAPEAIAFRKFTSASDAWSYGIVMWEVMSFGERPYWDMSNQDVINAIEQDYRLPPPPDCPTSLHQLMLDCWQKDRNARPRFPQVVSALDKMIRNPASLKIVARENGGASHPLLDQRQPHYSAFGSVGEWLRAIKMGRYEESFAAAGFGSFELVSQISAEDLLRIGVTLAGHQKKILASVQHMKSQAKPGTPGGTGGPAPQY

PDGFRB = PDGFRB (Homo sapiens, UniProt P09619); assay: biochemical; conditions: read-out: Percent control
KIT = KIT (Homo sapiens, UniProt P10721); assay: biochemical; conditions: read-out: Percent control
MET = MET (Homo sapiens, UniProt P08581); assay: biochemical; conditions: read-out: Percent control
SYK = SYK (Homo sapiens, UniProt P43405); assay: biochemical; conditions: read-out: Percent control
H1975 = assay: Anticancer activity (cytotoxicity) in NSCLC cell line; format: cell-based; conditions: Homo sapiens, NCI-H1975, read-out: Anticancer activity (IC50) H1975
EPHA6 = target: T3, EPHA6 (Homo sapiens, UniProt Q9UF33); assay: biochemical; conditions: read-out: Percent control
T3 sequence (Q9UF33 23-1036): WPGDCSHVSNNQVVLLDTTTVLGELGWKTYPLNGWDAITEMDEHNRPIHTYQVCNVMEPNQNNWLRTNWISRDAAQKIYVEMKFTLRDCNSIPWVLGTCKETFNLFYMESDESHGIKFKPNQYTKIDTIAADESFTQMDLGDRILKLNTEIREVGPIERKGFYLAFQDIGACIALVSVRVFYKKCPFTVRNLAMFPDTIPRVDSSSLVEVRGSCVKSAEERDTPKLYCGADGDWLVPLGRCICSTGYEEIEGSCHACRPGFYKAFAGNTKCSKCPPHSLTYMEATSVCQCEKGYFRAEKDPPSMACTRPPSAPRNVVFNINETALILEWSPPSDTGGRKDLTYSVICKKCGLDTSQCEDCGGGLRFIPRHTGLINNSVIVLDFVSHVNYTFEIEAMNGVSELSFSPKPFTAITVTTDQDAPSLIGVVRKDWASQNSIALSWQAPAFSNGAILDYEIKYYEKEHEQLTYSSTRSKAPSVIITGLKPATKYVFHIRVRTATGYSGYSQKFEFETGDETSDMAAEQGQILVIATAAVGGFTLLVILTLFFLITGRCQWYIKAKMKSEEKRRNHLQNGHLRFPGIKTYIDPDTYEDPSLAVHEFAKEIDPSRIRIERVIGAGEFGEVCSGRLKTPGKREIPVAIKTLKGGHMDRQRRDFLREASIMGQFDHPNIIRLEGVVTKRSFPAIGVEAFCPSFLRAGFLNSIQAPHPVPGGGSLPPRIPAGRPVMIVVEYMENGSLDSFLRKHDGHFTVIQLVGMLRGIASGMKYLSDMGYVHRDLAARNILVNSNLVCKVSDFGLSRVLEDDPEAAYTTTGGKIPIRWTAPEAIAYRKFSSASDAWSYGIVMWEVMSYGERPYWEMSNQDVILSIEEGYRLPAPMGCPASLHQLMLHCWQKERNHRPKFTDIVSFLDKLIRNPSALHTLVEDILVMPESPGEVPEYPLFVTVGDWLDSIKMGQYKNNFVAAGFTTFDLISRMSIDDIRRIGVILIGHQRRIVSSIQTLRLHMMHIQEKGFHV

MET(Y1235D) [2] = target: T1, MET(Y1235D); conditions: 10 μM
EGFR = EGFR (Homo sapiens, UniProt P00533); conditions: 10 μM
[3] = target: ABL1(Q252H)-phosphorylated (Homo sapiens, UniProt P00519, Q252H); conditions: 10 μM
[4] = target: ABL1(F317L)-nonphosphorylated (Homo sapiens, UniProt P00519, F317L); conditions: 10 μM
[5] = target: ABL1(F317I)-phosphorylated (Homo sapiens, UniProt P00519, F317I); conditions: 10 μM
[6] = target: ABL1(Y253F)-phosphorylated (Homo sapiens, UniProt P00519, Y253F); conditions: 10 μM

T1 sequence (P08581 25-1390 Y1235D): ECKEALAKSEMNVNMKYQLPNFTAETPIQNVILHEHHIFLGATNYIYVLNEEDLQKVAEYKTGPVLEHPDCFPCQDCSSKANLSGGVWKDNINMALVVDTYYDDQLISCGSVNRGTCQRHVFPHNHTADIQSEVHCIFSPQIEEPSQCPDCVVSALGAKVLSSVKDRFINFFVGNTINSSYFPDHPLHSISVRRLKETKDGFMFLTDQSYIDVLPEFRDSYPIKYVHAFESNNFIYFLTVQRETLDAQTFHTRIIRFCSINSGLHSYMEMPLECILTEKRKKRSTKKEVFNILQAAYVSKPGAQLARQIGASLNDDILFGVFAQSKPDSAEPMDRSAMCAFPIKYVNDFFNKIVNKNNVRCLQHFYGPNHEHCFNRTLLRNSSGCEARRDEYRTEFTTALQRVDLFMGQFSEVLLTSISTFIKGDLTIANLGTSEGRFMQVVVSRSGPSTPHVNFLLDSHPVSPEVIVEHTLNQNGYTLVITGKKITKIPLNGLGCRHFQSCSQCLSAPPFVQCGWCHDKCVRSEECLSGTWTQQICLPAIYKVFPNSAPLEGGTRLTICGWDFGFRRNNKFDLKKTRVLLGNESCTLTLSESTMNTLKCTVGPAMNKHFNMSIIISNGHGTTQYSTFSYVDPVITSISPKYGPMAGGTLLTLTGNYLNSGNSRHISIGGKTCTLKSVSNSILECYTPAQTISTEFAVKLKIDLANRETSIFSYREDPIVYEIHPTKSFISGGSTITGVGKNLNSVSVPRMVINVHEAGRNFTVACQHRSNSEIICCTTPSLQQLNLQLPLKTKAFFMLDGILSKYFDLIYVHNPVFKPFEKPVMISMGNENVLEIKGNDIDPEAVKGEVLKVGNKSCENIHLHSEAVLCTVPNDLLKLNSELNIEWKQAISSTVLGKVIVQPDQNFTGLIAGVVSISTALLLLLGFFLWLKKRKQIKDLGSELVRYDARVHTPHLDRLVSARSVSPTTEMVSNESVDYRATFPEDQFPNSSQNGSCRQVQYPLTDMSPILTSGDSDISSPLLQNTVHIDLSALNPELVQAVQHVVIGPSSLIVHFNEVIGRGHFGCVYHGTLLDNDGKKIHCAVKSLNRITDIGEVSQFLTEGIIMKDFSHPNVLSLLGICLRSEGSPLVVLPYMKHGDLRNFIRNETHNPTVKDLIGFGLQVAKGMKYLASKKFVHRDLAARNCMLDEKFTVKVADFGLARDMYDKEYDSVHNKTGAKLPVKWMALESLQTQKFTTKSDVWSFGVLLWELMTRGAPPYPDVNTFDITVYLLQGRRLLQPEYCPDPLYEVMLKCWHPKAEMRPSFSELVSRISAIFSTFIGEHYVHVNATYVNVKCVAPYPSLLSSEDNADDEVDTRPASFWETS
KIT, sequence (P10721 26-976): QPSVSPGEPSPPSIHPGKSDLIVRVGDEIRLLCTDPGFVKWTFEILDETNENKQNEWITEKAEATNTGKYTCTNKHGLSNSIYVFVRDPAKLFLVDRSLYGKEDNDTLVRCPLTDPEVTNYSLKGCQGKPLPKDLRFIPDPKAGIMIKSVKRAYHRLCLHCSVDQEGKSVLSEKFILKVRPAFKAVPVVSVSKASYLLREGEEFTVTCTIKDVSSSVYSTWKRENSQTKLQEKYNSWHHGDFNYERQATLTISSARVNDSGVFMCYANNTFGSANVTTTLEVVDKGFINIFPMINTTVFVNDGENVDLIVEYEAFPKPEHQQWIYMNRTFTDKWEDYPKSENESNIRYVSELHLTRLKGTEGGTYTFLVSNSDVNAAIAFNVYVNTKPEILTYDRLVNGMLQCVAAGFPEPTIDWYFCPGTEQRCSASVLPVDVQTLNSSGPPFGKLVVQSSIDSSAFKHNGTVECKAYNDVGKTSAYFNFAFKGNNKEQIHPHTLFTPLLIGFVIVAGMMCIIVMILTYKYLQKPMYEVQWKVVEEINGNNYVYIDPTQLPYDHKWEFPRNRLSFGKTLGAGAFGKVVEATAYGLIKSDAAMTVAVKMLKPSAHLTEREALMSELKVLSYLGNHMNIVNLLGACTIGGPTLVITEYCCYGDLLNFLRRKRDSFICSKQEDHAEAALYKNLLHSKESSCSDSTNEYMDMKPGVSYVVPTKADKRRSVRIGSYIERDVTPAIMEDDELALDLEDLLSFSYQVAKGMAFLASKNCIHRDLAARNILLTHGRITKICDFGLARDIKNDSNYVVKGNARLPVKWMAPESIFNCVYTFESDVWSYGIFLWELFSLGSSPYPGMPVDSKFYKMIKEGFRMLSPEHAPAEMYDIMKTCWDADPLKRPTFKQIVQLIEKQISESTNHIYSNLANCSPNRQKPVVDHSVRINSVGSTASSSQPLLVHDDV
PDGFRB, sequence (P09619 33-1106): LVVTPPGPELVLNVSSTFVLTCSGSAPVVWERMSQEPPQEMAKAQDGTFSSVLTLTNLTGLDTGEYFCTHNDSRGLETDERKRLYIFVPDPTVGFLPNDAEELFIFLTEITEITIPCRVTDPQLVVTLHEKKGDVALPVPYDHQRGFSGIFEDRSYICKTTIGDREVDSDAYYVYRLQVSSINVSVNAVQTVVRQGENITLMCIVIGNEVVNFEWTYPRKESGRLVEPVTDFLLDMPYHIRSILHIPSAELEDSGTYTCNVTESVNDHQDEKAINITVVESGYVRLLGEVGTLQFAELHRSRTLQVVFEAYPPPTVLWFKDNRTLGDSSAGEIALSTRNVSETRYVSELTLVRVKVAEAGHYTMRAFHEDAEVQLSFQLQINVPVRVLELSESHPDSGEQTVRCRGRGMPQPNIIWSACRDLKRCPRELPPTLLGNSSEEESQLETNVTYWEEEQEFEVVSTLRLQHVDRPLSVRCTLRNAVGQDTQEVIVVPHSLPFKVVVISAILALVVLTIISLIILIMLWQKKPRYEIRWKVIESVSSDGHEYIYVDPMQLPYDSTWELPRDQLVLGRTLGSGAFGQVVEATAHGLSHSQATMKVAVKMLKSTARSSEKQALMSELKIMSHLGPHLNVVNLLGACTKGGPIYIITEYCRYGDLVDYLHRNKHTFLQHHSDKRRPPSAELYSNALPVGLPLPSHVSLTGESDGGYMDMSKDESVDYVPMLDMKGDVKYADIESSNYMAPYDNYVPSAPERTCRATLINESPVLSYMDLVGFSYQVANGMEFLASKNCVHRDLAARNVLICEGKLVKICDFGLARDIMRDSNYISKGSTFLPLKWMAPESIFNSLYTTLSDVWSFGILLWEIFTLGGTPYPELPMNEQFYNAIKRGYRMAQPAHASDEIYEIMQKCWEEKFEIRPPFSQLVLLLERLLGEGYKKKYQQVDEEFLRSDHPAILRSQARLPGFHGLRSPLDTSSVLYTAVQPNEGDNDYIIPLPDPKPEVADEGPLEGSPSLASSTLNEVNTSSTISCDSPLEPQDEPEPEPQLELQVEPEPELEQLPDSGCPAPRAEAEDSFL
MET, sequence (P08581 25-1390): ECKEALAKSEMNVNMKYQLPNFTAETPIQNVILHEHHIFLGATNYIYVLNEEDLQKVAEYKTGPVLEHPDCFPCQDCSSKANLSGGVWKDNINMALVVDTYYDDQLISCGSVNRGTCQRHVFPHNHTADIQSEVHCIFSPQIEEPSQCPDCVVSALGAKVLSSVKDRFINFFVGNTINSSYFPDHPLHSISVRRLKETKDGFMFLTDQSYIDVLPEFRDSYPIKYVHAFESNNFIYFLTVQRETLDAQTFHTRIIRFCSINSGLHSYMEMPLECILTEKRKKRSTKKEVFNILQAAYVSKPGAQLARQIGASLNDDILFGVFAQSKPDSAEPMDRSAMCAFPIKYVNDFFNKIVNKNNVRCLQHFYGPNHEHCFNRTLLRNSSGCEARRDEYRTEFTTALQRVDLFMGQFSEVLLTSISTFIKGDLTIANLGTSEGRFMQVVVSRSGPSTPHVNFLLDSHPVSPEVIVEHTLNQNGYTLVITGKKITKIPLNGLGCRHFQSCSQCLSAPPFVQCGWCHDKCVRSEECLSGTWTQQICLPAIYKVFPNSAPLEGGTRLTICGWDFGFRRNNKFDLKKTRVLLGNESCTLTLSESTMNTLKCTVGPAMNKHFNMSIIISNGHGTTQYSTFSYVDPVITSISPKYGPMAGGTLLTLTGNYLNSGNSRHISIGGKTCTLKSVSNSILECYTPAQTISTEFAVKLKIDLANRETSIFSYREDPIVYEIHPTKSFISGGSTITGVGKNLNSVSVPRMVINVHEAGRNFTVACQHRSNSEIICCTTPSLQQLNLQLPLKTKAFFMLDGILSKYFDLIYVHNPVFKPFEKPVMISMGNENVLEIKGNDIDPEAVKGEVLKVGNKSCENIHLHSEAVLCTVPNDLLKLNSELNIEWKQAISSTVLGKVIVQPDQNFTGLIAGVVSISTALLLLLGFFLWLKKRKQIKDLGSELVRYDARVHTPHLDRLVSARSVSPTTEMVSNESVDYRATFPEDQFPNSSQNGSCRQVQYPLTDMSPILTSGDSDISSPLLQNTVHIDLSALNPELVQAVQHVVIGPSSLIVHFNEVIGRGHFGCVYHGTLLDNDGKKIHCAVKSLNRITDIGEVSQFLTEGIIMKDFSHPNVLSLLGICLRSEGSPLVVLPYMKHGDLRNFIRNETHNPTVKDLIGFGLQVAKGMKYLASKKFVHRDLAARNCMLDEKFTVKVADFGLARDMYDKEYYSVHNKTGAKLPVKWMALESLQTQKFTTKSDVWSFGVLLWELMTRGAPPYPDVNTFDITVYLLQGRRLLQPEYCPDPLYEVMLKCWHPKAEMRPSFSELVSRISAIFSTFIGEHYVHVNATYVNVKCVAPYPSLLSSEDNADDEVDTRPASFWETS

Row | SMILES | remaining activity at 10 µM (MET(Y1235D) [1]) | remaining activity at 10 µM (EPHB4) | remaining activity at 10 µM (PDGFRB) | remaining activity at 10 µM (KIT) | remaining activity at 10 µM (MET) | remaining activity at 10 µM (SYK) | IC50 (H1975) | remaining activity at 10 µM (EPHA6) | Percent control (MET(Y1235D) [2]) | further results
1 | C#Cc1cccc(Nc2ncnc3cc(OCCOC)c(OCCOC)cc23)c1 [Erlotinib] | 9.9% | 18% | 12.3% | 14.5% | 27.5% | 100% | 11.8 ± 3.19 µM | 4.2% | – | remaining activity at 10 µM (RET(M918T)): 3.2%
2 | Cc1ccc(NC(=O)c2ccc(CN3CCN(C)CC3)cc2)cc1Nc1nccc(-c2cccnc2)[n+]1[Pt-2]1([Cl])[NH2+]C2CCCCC2[NH2+]1 (stereo not drawn) [1b, oxaliplatin-imatinib] | – | – | – | – | – | – | – | – | 100% | Percent control (EGFR): 89%
3 | Cc1ccc(NC(=O)c2ccc(CN3CCN(C)CC3)cc2)cc1Nc1nccc(-c2cccnc2)n1 [Imatinib, reference compound] | 100% | – | 0.1% | 0.1% | 100% | – | – | – | – | –
4 | COc1cc2c(Nc3ccc(Br)cc3F)ncnc2cc1OCC1CCN(C)CC1 [Vandetanib, reference compound] | – | 4.9% | – | – | – | 100% | 13.8 ± 2.06 µM | 0.5% | – | –
5 | C#Cc1cccc(Nc2c3cc(OCCOC)c(OCCOC)cc3nc[n+]2[Pt@SP2-2]([NH3+])([NH3+])[Cl])c1 [2a, cisplatin-erlotinib] | – | – | – | – | – | – | – | – | 92% | Percent control [3]: 12%; Percent control [4]: 61%; Percent control [5]: 49%; Percent control [6]: 16%
